According to patent US20210196730A1, “COMPOUND AND USE THEREOF” (priority 2018, published 2021):
Like-named read-outs stand apart in the source and are kept apart here.

Columns and labels:
[1] = tested on: pancreatic stellate cells and pancreatic cancer cells; assay: Smooth actin and collagen in co-cultured pancreatic stellate cells and pancreatic cancer cells (immunofluorescence); type: cell-based, KPC mice; conditions: co-culture 1:1, 24 hours; TP 10 nM, Cal 100 nM, TP/Cal 10/100 nM, Callide^NP 100 nM
Text: (§1) Experimental materials: pancreatic stellate cells and pancreatic cancer cells cultured in transgenic mice. Among them, pancreatic cancer cells were transfected with luciferase gene by lentivirus transfection method.
(§2) Experimental method: in vitro co-culture, immunofluorescence histochemical analysis
(§3) Experimental process: the tumor tissues were taken from KPC mice that spontaneously developed with tumors, and the tumor tissues were dissected, and primary pancreatic stellate cells and pancreatic cancer cells were isolated by physical in vitro disruption and enzymatic hydrolysis, and cultured.
Pancreatic stellate cells and pancreatic cancer cells were cultured in a 12-well plate at a ratio of 1:1, with a total of 100,000 cells per well, using TP (10 nM), Cal (100 nM), treated with TP/Cal (10/100 nM), and Callide^NP (100 nM), and incubated for 24 hours, and then the contents of smooth actin and collagen of the cells in each well were analyzed with immunofluorescence staining.

[2] = tested on: pancreatic stellate cells and pancreatic cancer cells co-implanted orthotopic model; type: in vivo; conditions: for tumor suppression effect: TP 0.3, Cal 0.35, TP/Cal 0.3/0.35, Callide^NP 0.6 mg/kg, once every two days, 7 times
Protocol: Experimental materials: pancreatic stellate cells, pancreatic cancer cells transfected with luciferase; nude mice: strain Blab/C nude, 6-8 weeks old.
Experimental method: suspensions of pancreatic stellate cells and luciferase-transfected pancreatic cancer cells were mixed uniformly at a ratio of 1:1, and inoculated into the pancreas at a density of 10,000 cells/40 μL with an inoculation volume of 40 μL.
Experimental process: the two kinds of cells were digested and centrifuged, resuspended with PBS and mixed at a ratio of 1:1, and then the cell mixture was mixed with Matrigel at a ratio of 1:1 and pipetted uniformly. Nude mice underwent relevant operations under the premise of review by the Ethics Committee of Tsinghua University. […], of the uniformly pipetted cell suspension was injected into the pancreas with an insulin needle, the wound was sutured, and a sedative was injected subcutaneously. About one week after the cell injection, each mouse was intraperitoneally injected with 0.1 ml of […] solution. After 10 min, the mice were anesthetized with isoflurane, and an intensity of the fluorescent signal in the pancreas of the mice was detected with a live imaging system for small animal. Subsequently, the mice were randomly divided into groups, 7 mice in each group, and TP (0.3 mg/kg), Cal (0.35 mg/kg), TP/Cal (0.3/0.35 mg/kg), and Callide^NP (0.6 mg/kg) were administrated, respectively, once every two days for a total of 7 times. After each administration, the mice were weighed. After 4 times of administration, the intensity of the fluorescent signal in the pancreas of mice was detected with the live imaging system for small animal. After the administrations were all finished, the intensity of the fluorescent signal in the pancreas of the mice was detected again with the live imaging system for small animal, while recording a survival rate of mice. After the experiment, the tumor tissues of the mice were taken, and an expression of smooth actin and collagen in the tumor tissues was detected by tissue immunofluorescence staining (the experiment results are shown in FIG. 6).

[3] = tested on: pancreatic cancer cell lines MIA PaCa-2, PANC-1, SW1990, and SW1990-GEM; assay: Cytotoxicity experiment of Callide (DNA assay method); type: cell-based; conditions: 24 h
Protocol: Experimental materials: four pancreatic cancer cell lines, i.e., MIA PaCa-2, PANC-1, SW1990, and SW1990-GEM. Whole cell culture medium, microplate reader
Experimental Method: DNA Assay Method
Experimental process: pancreatic cancer cells were cultured, digested, resuspended into a cell suspension with medium, and seeded into 96-well plates, with 4000 cells per well. The experimental components are […], i.e., TP group, Cal group, TP and Cal physical mixed group (TP/Cal), Callide-DMSO without esterase group (Callide without PLE), Callide-DMSO with 10 U esterase group (Callide with 10 U PLE), Callide^NP without esterase group (Callide^NP without PLE), and Callide^NP with 10 U esterase group (Callide^NP with 10 U PLE). For each group, 8 concentrations of 5 nM, 10 nM, 20 nM, 40 nM, 80 nM, 100 nM, 200 nM, and 400 nM were prepared, and each concentration was repeated in six wells. After 24 h of administration, the drug solution was removed by suction, washed with PBS twice, added […], analyzed by a microplate reader, and plotted a relative survival rate curve of cells to calculate an IC50 of each compound.

MIA PaCa-2 cell line = assay: In vivo anti-tumor effect, mouse subcutaneous tumor model based on MIA PaCa-2; conditions: for anti-tumor effect (tumor growth): compared with saline, TP 0.3, Cal 0.3, TP/Cal 0.3/0.35, Callide^NP 0.3 mg/kg (as TP), tail vein once a week
Protocol: Experimental Material: MIA PaCa-2 Cell Line
Experimental method: establishing a mouse subcutaneous tumor model based on the MIA PaCa-2 cell line, and evaluating an inhibitory effect on tumor as well as toxic and side effect of each compound of the experimental group after administration.
Experimental process: 0.1 ml of MIA PaCa-2 cell suspension was injected into axilla of the mice, and the growth of tumor was monitored. […] Dosages of administration: TP (0.3 mg/kg), Cal (0.3 mg/kg), TP/Cal (0.3/0.35 mg/kg), Callide^NP (0.3 mg/kg, administration dosage after it was theoretically completely degraded to TP), administered via tail vein injection once a week. The tumor size was measured every two days.

[4] = tested on: pancreatic stellate cells; assay: Smooth actin and collagen in pancreatic stellate cells alone (immunofluorescence); type: cell-based, KPC mice; conditions: 24 hours, TP 10 nM, Cal 100 nM, TP/Cal 10/100 nM, Callide^NP 100 nM
Text: as §1, §2, §3
Pancreatic stellate cells alone were cultured in a 12-well plate, 100,000 cells per well, treated with TP (10 nM), Cal (100 nM), TP/Cal (10/100 nM), Callide^NP (100 nM) for 24 hours, and then contents of smooth actin and collagen of the cells in each well were analyzed with immunofluorescence staining.

[5] = Rat PK experiment of Callide^NP (chromatography-mass spectrometry); type: in vivo; conditions: SD rats, Callide^NP 0.3 and 0.6 mg/kg; for concentration of free TP in plasma / plasma half-life: TP 0.3 mg/kg
Protocol: Experimental materials: rats, strain SD, 6-9 weeks old. Analytical instruments: Agilent 1290/6460 triple quadrupole mass spectrometer, made in the United States.
Experimental Method: Chromatography-Mass Spectrometry
Experimental process: 12 SD rats were randomly divided into 4 groups, with 3 rats in each group. TP (0.3 mg/kg), TP/Cal (0.3/0.35 mg/kg), Callide^NP (0.3 mg/kg), Callide^NP (0.6 mg/kg) were administered respectively. 300 μl of blood of each rat was collected through the orbit at 5 min, 15 min, 30 min, 1 h, 2 h, 4 h, and 8 h, respectively, centrifuged at 10000 rpm at 4° C., and the supernatant plasma was collected. The plasma was extracted with ethyl acetate/water, vortexed, sonicated, centrifuged at 4° C., the supernatant was evaporated to dryness under the protection of nitrogen, and then dissolved in mobile phase acetonitrile/water. After centrifugation, the supernatant was taken and injected.

[6] = Toxicity experiment on mice in short- and long-term administration; conditions: mouse, in vivo
Protocol: Experimental Material: BALB/C Mice
Experimental method: BALB/C mice were divided into 5 groups, including a saline control group and four drug administration groups of TP, Cal, TP/Cal, and Callide^NP groups. 5 mice in the control group, and 5 mice for each of 3 dosages, i.e., high, medium and low dosages in each experimental group, for a total of 65 mice. Dosages of administration: TP (0.3 mg/kg, 0.6 mg/kg, 1.2 mg/kg); Cal (0.6 mg/kg, 1.2 mg/kg, 1.8 mg/kg); TP/Cal (0.6 mg/kg, 1.2 mg/kg, 1.8 mg/kg); and Callide^NP (0.6 mg/kg, 1.2 mg/kg, 1.8 mg/kg), were administered once a week via tail vein injection.

[7] = tested on: humanized pancreatic cancer tissue; assay: In vivo anti-tumor effect, mouse subcutaneous tumor model of humanized pancreatic cancer tissue
Protocol: Experimental material: humanized pancreatic cancer tissue
Experimental method: establishing a mouse subcutaneous tumor model based on humanized pancreatic cancer tissue
Experimental process: a mouse subcutaneous tumor model of humanized pancreatic cancer tissue was established, TP (0.3 mg/kg) and Callide^NP (0.3 mg/kg, administration dosage after it was theoretically completely degraded to TP) were administrated via tail vein injection, once a day. One week later, the dosage of Callide^NP was increased to 0.6 mg/kg.

porcine liver esterase = assay: In vitro degradation experiment of Callide (HPLC); type: in vitro ADME; conditions: absence of porcine liver esterase
Protocol: Experimental materials: phosphate buffer (PBS, Ph=7.2 to 7.4), porcine liver esterase, high performance liquid chromatography (HPLC)
Experimental Method: HPLC Method
Experimental process: 5 microliters of 1 mg/ml Callide (ethanol solution for solubilizing) in 5 ml of PBS buffer with or without porcine liver esterase, and stirred at 37 degrees Celsius for 1 min, 5 min, 10 min, 30 min, 1 h, 2 h, 4 h, 8 h, 12 h, 24 h, 48 h, respectively, 200 microliters of the solution were taken, filtered, and a concentration of Callide or calcipotriol in the solution was determined by HPLC.

SMILES: C=C1/C(=C\C=C2/CCC[C@@]3(C)C2CCC3[C@@H](C)/C=C/[C@@H](O)C2CC2)C[C@@H](O)C[C@@H]1O (some centres unmarked) [Cal, calcipotriol]
- expression levels of related proteins (smooth actin and collagen) [1]: significantly reduced
- tumor suppression effect [2]: no tumor suppression effect
- survival rate of mice ([2]; compared with the control group): no significant difference
- fluorescent signal of pancreatic cancer cells ([2]; live imaging, compared with the control group): no significant difference
- killing effect on cancer cells ([3]; within the dosage range studied (5 nM to 400 nM)): no killing effect on cancer cells
- anti-tumor effect (tumor growth) (MIA PaCa-2 cell line): no anti-tumor effect
- toxic reactions / adverse states after administration (mouse, in vivo): none of the mice in the Cal group showed the above-mentioned adverse symptoms
- contents of smooth actin and collagen [4]: decreased

SMILES: C=C1/C(=C\C=C2/CCC[C@@]3(C)C2CCC3[C@@H](C)/C=C/C(OC(=O)CCC(=O)O[C@@H]2[C@@]3(C(C)C)O[C@H]3[C@@H]3O[C@]34[C@]23O[C@H]3C[C@H]2C3=C(CC[C@@]24C)C(=O)OC3)C2CC2)C[C@@H](O)C[C@@H]1O (some centres unmarked) [Callide]
- average plasma residence time [5]: prolonged
- concentration of free TP in plasma [5]: significantly reduced
- plasma half-life [5]: prolonged
- cell killing effect ([3]; with 10 U porcine liver esterase): produce cell killing effect
- toxic and side effects on cells ([3]; without the addition of esterase): no toxic and side effects on cells
- long-term toxicity compared with TP [6]: significantly reduced
- apoptosis of tumor cells ([7]; immunohistochemical staining): accompanied by apoptosis of tumor cells
- fibrin content of the tumor tissue ([7]; immunohistochemical staining): significantly reduced
- degradation of Callide (porcine liver esterase; PBS, 37 degrees Celsius): could not be degraded
- concentration of Callide in the solution (porcine liver esterase; time extended to 48 h): remained unchanged

SMILES: CC(C)[C@]12O[C@H]1[C@@H]1O[C@]13[C@]1(O[C@H]1C[C@H]1C4=C(CC[C@@]13C)C(=O)OC4)[C@@H]2O [TP, triptolide]
- expression levels of related proteins (smooth actin and collagen) [1]: did not change significantly
- concentration of free TP in plasma [5]: high
- plasma half-life [5]: short
- toxicity ([2]; TP 0.3 mg/kg): obvious toxicity
- tumor suppression effect [2]: insignificant tumor suppression effect
- deaths ([2]; after seven administrations, TP 0.3 mg/kg): one mouse died
- body weight of the mice ([2]; mouse, in vivo): significantly reduced
- IC50 ([3]; Pancreatic cancer cell, all four types of pancreatic cancer cells): 20 nM
- anti-tumor effect (tumor growth) (MIA PaCa-2 cell line): inhibits tumor growth more effectively than Callide^NP
- tumor size relative to other groups (MIA PaCa-2 cell line; mouse, in vivo): smaller than that of the TP/Cal and Callide^NP groups
- tumor weight (MIA PaCa-2 cell line; tumors isolated and weighed after dissection): significantly less weight than the control group
- inhibitory effect on tumor growth ([7]; first week, 0.3 mg/kg once a day via tail vein): significant inhibitory effect on tumor growth
- mortality (1.8 mg/kg, single administration): all mice died after a single administration
- morphology of spermatogonia and spermatocytes (TP group): severely damaged
- organs (anatomical results) (TP group): different degrees of necrosis
- relative weight of the testis (TP group): significantly reduced
- body weight (especially 1.2 mg/kg of TP): lost their weight significantly
- skin at the injection site on the tail (especially 1.2 mg/kg of TP): severe skin ulceration
- toxic reactions / adverse states after administration (high, medium and low dosages, once a week via tail vein injection): obvious toxic reactions
- contents of smooth actin and collagen [4]: not significantly different
